Assays:
[1] = xn = mol fraction of the nth substance listed; conditions: 96.64 kPa, Liquid, mechanical oscillator
[2] = refractive index (Na D-line) (dimensionless); xn = mol fraction of the nth substance listed; conditions: 94.64 kPa, Liquid, Standard Abbe refractometry

CC(=O)O [acetic acid] + Cc1ccccc1
Conditions | mass density, 293.15 K [kg/m3] | mass density, 298.15 K [kg/m3] | mass density, 303.15 K [kg/m3] | refractive index, 293.15 K | refractive index, 298.15 K | refractive index, 303.15 K
[1], x1 = 0.146 | 878.94 | 873.65 | 868.47 | – | – | –
[1], x1 = 0.277 | 894.11 | 888.81 | 883.38 | – | – | –
[1], x1 = 0.397 | 907.9 | 902.58 | 897.1 | – | – | –
[1], x1 = 0.506 | 924.08 | 918.49 | 912.96 | – | – | –
[1], x1 = 0.605 | 940.43 | 934.75 | 929.15 | – | – | –
[1], x1 = 0.697 | 960 | 954.12 | 948.31 | – | – | –
[1], x1 = 0.782 | 978.4 | 972.48 | 966.6 | – | – | –
[1], x1 = 0.859 | 1000.2 | 994.34 | 988.34 | – | – | –
[1], x1 = 0.897 | 1017.74 | 1011.75 | 1005.81 | – | – | –
[1], x1 = 0.932 | 1027.84 | 1021.82 | 1015.9 | – | – | –
[1], x1 = 0.967 | 1038.11 | 1032.17 | 1026.28 | – | – | –
[1], x1 = 1 | 1049.63 | 1043.57 | 1037.64 | – | – | –
[2], x1 = 0.146 | – | – | – | 1.48448 | 1.48174 | 1.47906
[2], x1 = 0.277 | – | – | – | 1.47082 | 1.4681 | 1.46535
[2], x1 = 0.397 | – | – | – | 1.45878 | 1.45618 | 1.45352
[2], x1 = 0.506 | – | – | – | 1.44593 | 1.44332 | 1.44065
[2], x1 = 0.605 | – | – | – | 1.43372 | 1.43116 | 1.42842
[2], x1 = 0.697 | – | – | – | 1.4212 | 1.41872 | 1.41617
[2], x1 = 0.782 | – | – | – | 1.40891 | 1.4065 | 1.40452
[2], x1 = 0.859 | – | – | – | 1.39681 | 1.39453 | 1.39228
[2], x1 = 0.897 | – | – | – | 1.38731 | 1.38466 | 1.38303
[2], x1 = 0.932 | – | – | – | 1.38235 | 1.38029 | 1.3782
[2], x1 = 0.967 | – | – | – | 1.37721 | 1.3752 | 1.37315
[2], x1 = 1 | – | – | – | 1.37224 | 1.37012 | 1.36809
